Literature values, collected in patent publication US20260356885A1, “PROCESS FOR MANUFACTURING AN ANTIBIOTIC MACROCYCLIC PEPTIDE” (Hoffmann-La Roche Inc., priority 2022, published 2026).

Test system: Acinetobacter baumannii
Conditions: statement in words, as discussed in WO2019206853; no test or value given

Q: For `CN1C(=O)[C@H](CCCCN)NC(=O)[C@H](CCCN)NCc2cccnc2Sc2cccc(-c3ccc(C(=O)O)cc3)c2CNC(=O)[C@@H]1Cc1c[nH]c2ccccc12` [compound of formula (I), 4-[(11S,14S,17S)-14-(4-Aminobutyl)-11-(3-aminopropyl)-17-(1H-indol-3-ylmethyl)-16-methyl-12,15,18-trioxo-2-thia-4, 10, 13, 16, 19-pentazatricyclo[19.4.0.03,8]pentacosa-1 (25),3 (8), 4,6,21,23-hexaen-22-yl]benzoic acid], which “antibiotic action, selective against Acinetobacter baumannii” value is on record?
A: potent antibiotic with selective action against Acinetobacter baumannii
